Values after ≈ are worked out from the molar mass of the structure shown. Like-named read-outs stand apart in the source and are kept apart here. Each block holds one molecule with its values, some of them ahead of it.
Columns and labels:
[1] = Half-life (stability) in buffer solution; type: physicochemical; settings: for half-life at 100 µM: 10^-4 M
Experimental: T1/2 =9.8 h (measured at a concentration of 10^-4 M in phosphate buffer pH 7.4 at 36.8° C.).
UV (phosphate buffer, pH 7.4) λmax 294 nm (ε=8,202); T1/2 (phosphate buffer, pH 7.4, M=0.967, T=37° C.) 9.1 h.
(c of 10^-4 M in pH 7.4 phosphate buffer.
.tau.1/2 =20.8 h measured at 37° C. in buffer (pG 7.4) for a concentration of 10^-4 M.
.tau.1/2 =12.5 h measured at 37° C. in buffer pH 7.4 for a concentration of 10^-4 M.
h (measured for a concentration of 10^-4 M at 36.8° C. in buffer pH 7.4).
.tau.1/2 =26.0 h (measured for a concentration of 10^-4 M at 36.8° C. in buffer pH 7.4).
.tau.1/2 =16.6 h (measured at 36.8° C., pH 7.4 for a concentration of 10^-4 M) and (5R, 6S) 6-(1R-hydroxyethyl)7-oxo-3-[1,2,6-trimethylpyridinium-4-yl)methylthio]-1-azabicyclo[3.2.0 hept-2-ene-2-carboxylate, 0.010 g, 0.7%;
.tau.1/2 =11.6 h (measured for a concentration of 10^-4 M at 36.8° C. in buffer pH 7.4).
.tau.1/2 =13.4 h (measured for a concentration of 10^-4 M at 36.8° C. in buffer pH 7.4).
.tau.1/2 =14.4 h (measured for a concentration of 10^-4 M at 36.8° C. in buffer pH 7.4).
T 1/2: 10.2 h (biological buffer).
.tau.1/2 =10.2 h measured at 36.8° C. for a concentration of 10^-4 M in buffer pH 7.4.

P. vulgaris A21559 = assay: M.I.C., tube dilution; type: cell-based; settings: Proteus vulgaris, A21559, overnight incubation at 37° C., Nutrient Broth; read-out: MIC
[2] = Blood levels in mice after intramuscular administration; settings: mouse, blood, im, 20 mg/kg;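 also: compounds dissolved in 0.1 M phosphate buffer at pH 7, data from one experiment using four mice for each compound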
Text: Compounds were solubilized in 0.1 M phosphate buffer pH 7.
a single test; 4 mice used per compound.
Compounds were solubilized in 0.1 M phosphate buffer, pH 7.
on a single test; 4 mice per compound.

S. faecalis A20688 = assay: M.I.C., tube dilution; type: cell-based; settings: Enterococcus faecalis, A20688, overnight incubation at 37° C., Nutrient Broth; read-out: MIC
P. aeruginosa A21213 = assay: M.I.C., tube dilution; type: cell-based; settings: Pseudomonas aeruginosa
S. pneumoniae A-9585 = assay: M.I.C., tube dilution; type: cell-based; settings: Streptococcus pneumoniae, A9585; overnight incubation at 37° C., Nutrient Broth; read-out: MIC
S. pyogenes A-9604 = assay: M.I.C., tube dilution; type: cell-based; settings: Streptococcus pyogenes, A9604; overnight incubation at 37° C., Nutrient Broth; read-out: MIC
S. aureus A-9537 = assay: M.I.C., tube dilution; type: cell-based; settings: Staphylococcus aureus, A9537; +50% serum; read-out: MIC
[3] = (phosphate) buffer pH 7.4, 37° C., read-out: half-life in solution (converted)
[4] = (phosphate) buffer pH 7.4, 36.8° C., read-out: T1/2 (half-life in solution) (converted)
[5] = biological buffer, read-out: T 1/2 (half-life in solution) (converted)

- half-life at 100 µM [1, 3]: 20.8 h
Structure (SMILES): Cc1cccc(CSC2=C(C(=O)[O-])N3C(=O)[C@H]([C@@H](C)O)C3[C@H]2C)[n+]1C (stereo in doubt) [Example 25, (5R,6S) 3-[(1,6-dimethylpyridinium-2-yl)methylthio]-6-(1R-hydroxyethyl)-4R-methyl-7-oxo-1-azabicyclo[3.2.0]hept-2-ene-2-carboxylate]

- half-life at 100 µM ([1]; phosphate buffer, 36.7° C., read-out: t 1/2 (half-life in solution) (converted)): 22.3 h
Structure (SMILES): Cc1cc(C)[n+](C)c(CSC2=C(C(=O)[O-])N3C(=O)[C@H]([C@@H](C)O)C3[C@H]2C)c1 (stereo in doubt) [Example 51A, (5R,6S) 6-(1R-Hydroxyethyl)-4R-methyl-7-oxo-3-[(1,4,6-trimethylpyridinium-2-yl)-methylthio]-1-azabicyclo[3.2.0]hept-2-ene-2-carboxylate]

- half-life at 100 µM [1, 4]: 29.8 h
Structure (SMILES): Cc1cc(CSC2=C(C(=O)[O-])N3C(=O)[C@H]([C@@H](C)O)C3[C@H]2C)cc(C)[n+]1C (stereo in doubt) [Example 51B, (5R,6S) 6-(1R-Hydroxyethyl)-4R-methyl-7-oxo-3-[(1,2,6-trimethylpyridinium-4-yl)-methylthio]-1-azabicyclo[3.2.0]hept-2-ene-2-carboxylate]

- half-life at 100 µM [1, 4]: 13.4 h
Structure (SMILES): Cc1cc(CSC2=C(C(=O)[O-])N3C(=O)[C@H]([C@@H](C)O)[C@H]3C2)c[n+](C)c1 [Example 37]

- half-life at 100 µM [1, 4]: 14.4 h
Structure (SMILES): Cc1ccc(CSC2=C(C(=O)[O-])N3C(=O)[C@H]([C@@H](C)O)[C@H]3C2)c[n+]1C [Example 38, (5R,6S) 3-[(1,6-dimethylpyridinium-3-yl)methylthio]-6-(1R-hydroxyethyl)-7-oxo-1-azabicyclo[3.2.0]hept-2-ene-2-carboxylate]

- half-life ([1]; biological buffer, unit inferred, read-out: T1/2 (half-life in solution) (converted)): 12.3 h
Structure (SMILES): C[C@@H](O)[C@H]1C(=O)N2C(C(=O)[O-])=C(SCc3cncc[n+]3C)[C@H](C)[C@H]12 [Example 46, (5R,6S)-6-(1R-Hydroxyethyl)-4R-methyl-3-[(1-methyl-1,4-pyrazinium-2-yl)-methylthio]-7-oxo-1-azabicyclo[3.2.0]-hept-2-ene-2-carboxylate]

- half-life at 100 µM [1, 4]: 10.2 h
Structure (SMILES): C#CCC[n+]1ccccc1CSC1=C(C(=O)[O-])N2C(=O)[C@H]([C@@H](C)O)[C@H]2C1 [Example 53, (5R,6S) 3[(1-{but-3-yn-1-ylpyridinium-2-yl)}methylthio]-6-(1R-hydroxyethyl)-7-oxo-1-azabicyclo[3.2.0]hept-2-ene-2-carboxylate]

Continued, molecule first:

Structure (SMILES): Cc1ccc(CSC2=C(C(=O)[O-])N3C(=O)[C@H]([C@@H](C)O)C3[C@H]2C)c[n+]1C (stereo in doubt) [Example 34, (5R,6S) 3-[(1,6-dimethylpyridinium-3-yl)methylthio]-6-(1R-hydroxyethyl)-4R-methyl-7-oxo-1-azabicyclo[3.2.0]hept-2-ene-2-carboxylate]
- half-life at 100 µM [1, 4]: 27.8 h

Structure (SMILES): Cc1cc(CSC2=C(C(=O)[O-])N3C(=O)[C@H]([C@@H](C)O)C3[C@H]2C)c[n+](C)c1 (stereo in doubt) [Example 35, (5R,6S) 3-[(1,5-dimethylpyridinium-3-yl)methylthio]-6-(1R-hydroxyethyl)-4R-methyl-7-oxo-1-azabicyclo[3.2.0]hept-2-ene-2-carboxylate]
- half-life at 100 µM [1, 4]: 26 h

Structure (SMILES): Cc1c(CSC2=C(C(=O)[O-])N3C(=O)[C@H]([C@@H](C)O)C3[C@H]2C)sc[n+]1C (stereo in doubt) [Example 54, (5R,6S) 3-[(3,4-Dimethylthiazolium-5-yl)methylthio]-6-(1'R-hydroxyethyl)-4R-methyl-7-oxo-1-azabicyclo[3.2.0]hept-2-ene-2-carboxylate]
- half-life at 100 µM [1, 3]: 19 h

Structure (SMILES): Cc1cc(CSC2=C(C(=O)[O-])N3C(=O)[C@H]([C@@H](C)O)[C@H]3C2)cc(C)[n+]1C [(5R,6S) 6-(1R-hydroxyethyl)-7-oxo-3-[(1,2,6-trimethylpyridinium-4-yl)methylthio]-1-azabicyclo[3.2.0]hept-2-ene-2-carboxylate]
- half-life at 100 µM [1, 4]: 11.6 h

Structure (SMILES): Cc1cc(C)[n+](C)c(CSC2=C(C(=O)[O-])N3C(=O)[C@H]([C@@H](C)O)[C@H]3C2)c1 [(5R,6S) 6-(1R-hydroxyethyl)-7-oxo-3-[(1,4,6-trimethylpyridinium-2-yl)methylthio]-1-azabicyclo[3.2.0]hept-2-ene-2-carboxylate]
- half-life at 100 µM [1, 4]: 16.6 h

Structure (SMILES): C[C@@H](O)[C@H]1C(=O)N2C(C(=O)[O-])=C(SCc3scc[n+]3C)C[C@H]12 [Example 11, 3-[2-(N-Methylthiazolium)methylthio]-6α-[1-(R)-hydroxyethyl]-7-oxo-1-azabicyclo(3.2.0)hept-2-ene-2-carboxylate]
- MIC (P. vulgaris A21559): 0.03 µg/mL (≈ 0.0881 µM)
- AUC [2]: 7400 ng·h/mL
- Cmax [2]: 14900 ng/mL
- half-life [2]: 0.183 h
- MIC (S. faecalis A20688): 0.5 µg/mL (≈ 1.47 µM)

Structure (SMILES): C[C@@H](O)[C@H]1C(=O)N2C(C(=O)[O-])=C(SCc3n(Cc4ccccc4)cc[n+]3C)C[C@H]12 [Example 13, 3-(N Methyl-N'-benzylimidazole-2-yl-methanethio)-6α-[1-(R)-hydroxyethyl]-7-oxo-1-azabicyclo(3.2.0)hept-2-ene-2-carboxylate]
- MIC (P. aeruginosa A21213; A21213, overnight incubation at 37° C., Nutrient Broth, read-out: MIC): 2 µg/mL (≈ 4.84 µM)
- MIC (P. vulgaris A21559): 0.008 µg/mL (≈ 0.0193 µM)
- AUC [2]: 6400 ng·h/mL
- Cmax [2]: 14800 ng/mL
- half-life [2]: 0.183 h
- MIC (S. pneumoniae A-9585): 0.0005 µg/mL (≈ 0.00121 µM)
- MIC (S. pyogenes A-9604): 0.0005 µg/mL (≈ 0.00121 µM)

Structure (SMILES): C[C@@H](O)[C@H]1C(=O)N2C(C(=O)[O-])=C(SCc3cs[n+](C)n3)C[C@H]12 [Example 16, (5R,6S) 6-(1R-hydroxyethyl)-3-(2-methyl-1,2,3-thiadiazolium-4-ylmethylthio)-7-oxo-1-azabicyclo[3.2.0]hept-2-ene-2-carboxylate]
- half-life at 100 µM [1, 4]: 9.8 h
- MIC (P. aeruginosa A21213; A21213): 0.13 µg/mL (≈ 0.381 µM)
- MIC (P. vulgaris A21559): 0.03 µg/mL (≈ 0.0879 µM)
- MIC (S. faecalis A20688): 1 µg/mL (≈ 2.93 µM)

Structure (SMILES): C[C@@H](O)[C@H]1C(=O)N2C(C(=O)[O-])=C(SCc3n(C)nc[n+]3C)C[C@H]12 [Example 19, 3-[5-(1,4-dimethyl-1,2,4-triazolium)-methanethio]-6α-[1-(R)-hydroxyethyl]-7-oxo-1-azabicyclo[3.2.0]hept-2-ene-2-carboxylate]
- MIC (S. aureus A-9537): 0.008 µg/mL (≈ 0.0236 µM)
- half-life ([1]; phosphate buffer, pH 7.4, M=0.967, T=37° C., read-out: T1/2 (half-life in solution) (converted)): 9.1 h
- MIC (P. vulgaris A21559): 0.016 µg/mL (≈ 0.0473 µM)
- AUC [2]: 15100 ng·h/mL
- Cmax [2]: 27000 ng/mL
- half-life [2]: 0.278 h

Structure (SMILES): Cc1cccc(CSC2=C(C(=O)[O-])N3C(=O)[C@H]([C@@H](C)O)[C@H]3C2)[n+]1C [Example 26, (5R,6S) 3-[(1,6-dimethylpyridinium-2-yl)methylthio]-6-(1R-hydroxyethyl)-7-oxo-1-azabicyclo[3.2.0]hept-2-ene-2-carboxylate]
- half-life at 100 µM [1, 3]: 12.5 h

Structure (SMILES): C[C@@H](O)[C@H]1C(=O)N2C(C(=O)[O-])=C(SCc3cncc[n+]3C)C[C@H]12 [Example 45, (5R,6S)-6-(1R-Hydroxyethyl)-3-[(1-methyl-1,4-pyraziinium-2-yl)methylthio]-7-oxo-1-azabicyclo(3.2.0)-hept-2-ene-2-carboxylate]
- half-life [1, 5]: 10.2 h

Structure (SMILES): C[C@@H](O)[C@H]1C(=O)N2C(C(=O)[O-])=C(SCc3cn(C)[n+](C)c3)C[C@H]12 [Example 47]
- half-life [1, 5]: 15.2 h

Structure (SMILES): Cc1c(CSC2=C(C(=O)[O-])N3C(=O)[C@H]([C@@H](C)O)[C@H]3C2)sc[n+]1C [Example 50]
- half-life at 100 µM ([1]; pH 7.4 phosphate buffer, temperature not given, read-out: half-life in solution (converted)): 11 h

Structure (SMILES): COCC[n+]1ccccc1CSC1=C(C(=O)[O-])N2C(=O)[C@H]([C@@H](C)O)[C@H]2C1 [Example 52, (5R,6S) 6-(1R-hydroxyethyl)-3-[{1-(2-methoxyethyl)pyridinium-2-yl}methylthio]-7-oxo-1-azabicyclo[3.2.0]hept-2-ene-2-carboxylate]
- half-life at 100 µM [1, 4]: 9.9 h
